From patent US9857375B2, “Cancer marker and utilization thereof” (PUBLIC UNIVERSITY CORPORATION NARA MEDICAL UNIVERSITY, priority 2012, dated 2018)

Experiments:
[1] = test system: human urothelial cancer cell strain KU7; experiment: cell survival assay (MTS assay) after addition of thapsigargin; format: cell-based; settings: thapsigargin 0.1-2.5 μM, 72 hours after addition
Experimental: To a culture solution prepared by culturing, for 24 hours, cells transfected with RNA in the same manner as in Example 2, thapsigargin (Sigma Corporation), which is an endoplasmic reticulum stress agent, was added so that predetermined concentrations (0.1 μM, 0.5 μM, 1 μM, and 2.5 μM) were achieved.
Seventy-two hours after the addition of thapsigargin, a cell survival assay (MTS assay: with use of a kit from Promega KK) was performed to obtain the number of cells that survived, and the ratio (cell survival rate) of the number of cells that survived in the presence of thapsigargin to the number of cells that survived in the absence of thapsigargin was calculated.

[2] = test system: human urothelial cancer cell strain KU7; experiment: TUNEL apoptosis detection after RNA transfection; format: cell-based; settings: 72 hours of culture after lipofection, versus control RNA
Experimental: Control RNA (QIAGEN) or ubiquilin 2 siRNA was introduced into human urothelial cancer cell strain KU7 (donated by the School of Urology at the Department of Medicine in Keio University). The ubiquilin 2 siRNA used was siRNA synthesized with 5′-[…]-3′ (SEQ ID NO. 3) of the ubiquilin 2 gene as a Target sequence. The introduction of each RNA was performed by a Lipofection technique with a Lipofectamine™ RNAimax (Life Technologies Japan Ltd.).
After 72 hours of culture of the cells transfected with the RNA, TUNEL positive cells (i.e. cells having undergone apoptosis) were detected under a fluorescence microscope by the TUNEL (Terminal deoxynucleotidyl transferase dUTP nick end labeling) technique, and the percentage of the TUNEL positive cells to the total number of cells was calculated.

Compound	cytotoxicity (cell survival rate) ([1]; KU7 cells transfected with control RNA (ubiquilin 2 gene not knocked down))	cytotoxicity (cell survival rate) ([1]; KU7 cells transfected with ubiquilin 2 siRNA (ubiquilin 2 gene knocked down))	apoptosis (TUNEL positive cells to DAPI positive cells, apoptosis rate) [2]
C/C=C(/C)C(=O)O[C@H]1C(C)=C2[C@H]([C@@H]1OC(=O)CCCCCCC)[C@@](C)(OC(C)=O)C[C@H](OC(=O)CCC)[C@@]1(O)[C@H]2OC(=O)[C@@]1(C)O [thapsigargin]	hardly exhibits cytotoxicity	markedly enhanced cytotoxicity	–
ubiquilin 2 siRNA: siRNA synthesized with 5′-TCCCATAAAGAGACCCTAATA-3′ (SEQ ID NO. 3) of the ubiquilin 2 gene as a Target sequence (siRNA sequence not given here, only target site)	–	–	apoptosis (death of cells) was induced in the cancer cells
